From the supplement of paper PMC10307832

Tests used:
Experiment in all cases: relative viability (nuclei count vs DMSO), 5 days (fraction); higher = more cells survive
VX-11e + Lapatinib = compound: CC1=CN=C(N=C1C2=CNC(=C2)C(=O)N[C@H](CO)C3=CC(=CC=C3)Cl)NC4=C(C=C(C=C4)F)Cl [VX-11e] + CS(=O)(=O)CCNCc1ccc(-c2ccc3ncnc(Nc4ccc(OCc5cccc(F)c5)c(Cl)c4)c3c2)o1 [Lapatinib] (partner 2 µM)
Summary of the method: (§1)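 Relative viability was taken as the ratio of nuclei in treated wells to nuclei in vehicle wells. Lung cancer cell lines in 1536-well plates received compounds by pin tool one day after seeding, either one drug alone or a fixed anchor-drug dose plus five library-drug doses (not always all listed) in √10 steps. Nuclei were counted on 4× images after 5 days of treatment, and values are medians of duplicate plates.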

VX-11e + Decitabine = compound: CC1=CN=C(N=C1C2=CNC(=C2)C(=O)N[C@H](CO)C3=CC(=CC=C3)Cl)NC4=C(C=C(C=C4)F)Cl [VX-11e] + Nc1ncn([C@H]2C[C@H](O)[C@@H](CO)O2)c(=O)n1 [Decitabine] (partner 2 µM)
Summary of the method: as §1

VX-11e + Tozasertib = compound: CC1=CN=C(N=C1C2=CNC(=C2)C(=O)N[C@H](CO)C3=CC(=CC=C3)Cl)NC4=C(C=C(C=C4)F)Cl [VX-11e] + Cc1cc(Nc2cc(N3CCN(C)CC3)nc(Sc3ccc(NC(=O)C4CC4)cc3)n2)n[nH]1 [Tozasertib] (partner 0.1 µM)
Summary of the method: as §1

VX-11e + Crizotinib = compound: CC1=CN=C(N=C1C2=CNC(=C2)C(=O)N[C@H](CO)C3=CC(=CC=C3)Cl)NC4=C(C=C(C=C4)F)Cl [VX-11e] + C[C@@H](Oc1cc(-c2cnn(C3CCNCC3)c2)cnc1N)c1c(Cl)ccc(F)c1Cl [Crizotinib] (partner 1 µM)
Summary of the method: as §1

Cell Line	relative viability (VX-11e + Lapatinib; first compound 0.04 µM)	relative viability (VX-11e + Lapatinib; first compound 0.1265 µM)	relative viability (VX-11e + Lapatinib; first compound 0.4 µM)	relative viability (VX-11e + Lapatinib; first compound 1.265 µM)	relative viability (VX-11e + Lapatinib; first compound 4 µM)	relative viability (VX-11e + Decitabine; first compound 0.04 µM)	relative viability (VX-11e + Decitabine; first compound 0.1265 µM)	relative viability (VX-11e + Decitabine; first compound 0.4 µM)	relative viability (VX-11e + Decitabine; first compound 1.265 µM)	relative viability (VX-11e + Decitabine; first compound 4 µM)	relative viability (VX-11e + Tozasertib; first compound 0.04 µM)	relative viability (VX-11e + Tozasertib; first compound 0.1265 µM)	relative viability (VX-11e + Tozasertib; first compound 0.4 µM)	relative viability (VX-11e + Tozasertib; first compound 1.265 µM)	relative viability (VX-11e + Tozasertib; first compound 4 µM)	relative viability (VX-11e + Crizotinib; first compound 0.04 µM)	relative viability (VX-11e + Crizotinib; first compound 0.1265 µM)	relative viability (VX-11e + Crizotinib; first compound 0.4 µM)	relative viability (VX-11e + Crizotinib; first compound 1.265 µM)	relative viability (VX-11e + Crizotinib; first compound 4 µM)
201T	0.948	0.988	0.943	0.816	0.942	0.868	0.84	0.831	0.831	0.758	0.99	0.923	0.941	0.909	0.774	1.02	0.961	1.02	0.97	0.948
A-427	0.966	0.942	1.03	1.05	0.584	0.559	0.518	0.569	0.645	0.443	0.181	0.18	0.132	0.143	0.16	0.92	0.721	0.55	0.688	0.311
ABC-1	1.03	1.06	0.899	1.22	1.53	1.11	–	0.992	1.06	0.977	0.137	0.219	0.175	0.123	0.188	1.24	1.07	1.06	0.892	1.09
BEN	–	0.637	0.888	0.45	0.728	0.505	0.645	0.712	0.573	0.654	–	0.477	0.642	0.456	0.417	0.953	0.723	0.941	0.575	0.828
CAL-12T	–	–	0.544	0.565	0.348	–	–	–	–	–	0.384	0.25	0.26	0.247	0.155	0.697	0.632	0.633	0.543	0.394
COR-L23	1.3	1	0.806	0.634	0.398	0.374	0.417	0.396	0.426	0.276	0.157	0.142	0.138	0.124	0.127	0.708	0.627	0.646	0.497	0.211
COR-L 105	0.354	0.324	0.396	0.355	0.381	0.685	0.701	0.712	0.705	0.333	0.341	0.342	0.367	0.721	0.268	0.779	0.705	0.547	0.369	0.292
Calu-6	1.07	1.03	1.05	0.364	0.226	–	–	–	–	–	–	–	–	–	–	0.829	0.839	0.861	0.396	0.145
ChaGo-K-1	–	–	–	–	–	0.534	0.495	0.511	0.51	0.5	0.219	0.233	0.234	0.188	0.186	1.19	–	1.23	1.01	1.12
EBC-1	0.207	0.236	0.19	0.235	0.177	–	–	–	–	–	–	–	–	–	–	0.204	0.182	0.163	0.198	0.18
EKVX	0.205	0.184	0.189	0.108	0.144	0.331	0.397	0.298	0.394	0.232	0.385	0.398	0.342	0.257	0.163	1.07	0.944	0.879	0.764	0.617
EMC-BAC-2	0.736	0.807	0.945	0.837	0.732	1.02	0.958	0.653	1	0.588	0.313	0.272	0.373	0.382	0.353	0.808	0.708	0.739	0.618	0.671
EPLC-272H	0.844	0.577	0.714	0.739	0.48	0.331	0.337	–	0.29	0.178	0.224	0.262	–	0.193	0.205	0.711	0.877	0.85	0.676	0.627
H3255	0.245	0.222	0.286	0.281	0.232	0.667	0.603	0.482	0.48	0.332	0.732	0.698	0.562	0.595	0.724	0.898	0.716	0.608	0.877	0.887
HARA	0.673	0.653	0.79	0.666	0.374	0.491	0.417	0.38	0.365	0.467	0.106	0.118	0.119	0.0971	0.0712	1.05	0.792	1.04	0.833	0.813
